Data as given in US7192746B2, “α-Isomaltosyltransferase, process for producing the same and use thereof” (Kabushiki Kaisha Hayashibara Seibutsu Kagaku Kenkyujo, priority 2000, dated 2007).

Legend:
[1] = tested on: Escherichia coli IFO 3301 strain; test: Assimilation test; type: cell-based; settings: PYF medium with 0.5% saccharide, 37° C., four days, anaerobic
[2] = tested on: small intestinal mucosal enzyme
[3] = tested on: Clostridium perfringens JCM 3816 strain; type: cell-based; settings: PYF medium with 0.5% saccharide, 37° C., four days, anaerobic
[4] = Amino carbonyl reaction with polypeptone; type: physicochemical; settings: 10% (w/v) with 5% (w/v) polypeptone, 120° C., minus control
Procedure: Four milliliter aliquots of the resulting solution were placed in glass test tubes, sealed, and heated at 120° C. for 30 to 90 min. After allowing to stand for cooling at ambient temperature, each of the resulting solution was measured for coloration degree to examine their amino carbonyl reactivity. In parallel, as a control, a solution with only polypeptone was provided and similarly treated as above. The coloration degree was evaluated based on the level of the absorbance, measured in a cell with 1-cm light pass at a wavelength of 480 nm, minus that of the control.

Thermostability = type: physicochemical; settings: 10% (w/v) aqueous solution, 120° C.; for Purity: HPLC
Procedure: After the heating, the aqueous solution was cooled under atmospheric conditions and measured for coloration degree and determined for purity on HPLC in Experiment 1. The coloration degree was evaluated based on the absorbance in a cell with a 1-cm light pass at a wavelength of 480 nm.

[5] = tested on: Bacteroides vulgatus JCM 5826 strain; test: Assimilation test; type: cell-based; settings: PYF medium with 0.5% saccharide, 37° C., four days, anaerobic
mice = test: Acute toxicity test; type: in vivo, mouse; settings: oral
Text: Based on this, the LD50 of cyclotetrasaccharide was at least 50 g/kg mouse body weight.

[6] = tested on: α-isomaltosyl-transferring enzyme from Bacillus globisporus C11; test: Action on saccharides (substrates, TLC); type: biochemical; set-up: key: −: there was found no substrate change before and after the enzymatic reaction; +: there were found both the reduction of substrate and the formation of cyclotetrasaccharide after the enzymatic reaction; settings: 2 units/g substrate, 2% (w/v) substrate, 30° C., pH 6.0, 24 hours
Method in brief: (§1)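 Action was judged by comparing TLC profiles of each mixture before and after a 24-hour reaction at 30° C. and pH 6.0. Each saccharide (2% w/v) received 2 units/g substrate of purified enzyme; plates were developed in n-butanol, pyridine and water (6:4:1).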

[7] = tested on: α-isomaltosyl-transferring enzyme from Arthrobacter globiformis A19; test: Action on saccharides (substrates, TLC); type: biochemical; set-up: key: −: there was found no substrate change before and after the enzymatic reaction; +: there were found both the reduction of substrate and the formation of cyclotetrasaccharide after the enzymatic reaction; settings: partially purified enzyme, 2 units/g substrate, 2% (w/v) substrate, 30° C., pH 6.0, 24 hours
Method in brief: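 Purified enzyme (partially purified for A. globiformis A19) at 2 units/g substrate acted on each saccharide at 2% (w/v), pH 6.0, 30° C., 24 h. Pre- and post-reaction mixtures ran on silica gel TLC in n-butanol/pyridine/water (6:4:1). Total sugars were stained by sulfuric acid-methanol and reducing sugars by diphenylamine-aniline.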

[8] = tested on: α-isomaltosyl-transferring enzyme from Bacillus globisporus N75; test: Action on saccharides (substrates, TLC); type: biochemical; set-up: key: −: there was found no substrate change before and after the enzymatic reaction; +: there were found both the reduction of substrate and the formation of cyclotetrasaccharide after the enzymatic reaction; settings: 2 units/g substrate, 2% (w/v) substrate, 30° C., pH 6.0, 24 hours
Method in brief: as §1

[9] = tested on: α-isomaltosyl-transferring enzyme from Arthrobacter ramosus S1; test: Action on saccharides (substrates, TLC); type: biochemical; set-up: key: −: there was found no substrate change before and after the enzymatic reaction; +: there were found both the reduction of substrate and the formation of cyclotetrasaccharide after the enzymatic reaction; settings: 2 units/g substrate, 2% (w/v) substrate, 30° C., pH 6.0, 24 hours
Method in brief: as §1

[10] = tested on: α-isomaltosyl-transferring enzyme from Bacillus globisporus C9; test: Action on saccharides (substrates, TLC); type: biochemical; set-up: key: −: there was found no substrate change before and after the enzymatic reaction; +: there were found both the reduction of substrate and the formation of cyclotetrasaccharide after the enzymatic reaction; settings: 2 units/g substrate, 2% (w/v) substrate, 30° C., pH 6.0, 24 hours
Method in brief: as §1

Structure (SMILES): OCC1OC2OCC3O[C@H](O[C@H]4C(O)C(CO)OC(OCC5O[C@H](O[C@@H](C1O)C2O)C(O)C(O)[C@@H]5O)C4O)C(O)C(O)[C@@H]3O (stereo partly drawn) [Cyclotetrasaccharide, cyclo{→6)-α-D-glucopyranosyl-(1→3)-α-D-glucopyranosyl-(1→6)-α-D-glucopyranosyl-(1→3)-α-D-glucopyranosyl-(1→}]
- Assimilability [1]: − (negative (−) when the post culture had a pH of 6.0 or higher)
- Decomposition percentage by digestive enzyme [2]: 0.74%
- Digestibility by intestinal mucosal enzyme relative to maltitol [2]: ⅕
- Assimilability [3]: − (negative (−) when the post culture had a pH of 6.0 or higher)
- Coloration degree (A480 nm) ([4]; heating time 0 min): 0.00
- Coloration degree (A480 nm) ([4]; heating time 30 min): 0.00
- Coloration degree (A480 nm) ([4]; heating time 60 min): 0.00
- Coloration degree (A480 nm) ([4]; heating time 90 min): 0.00
- Coloration degree (A480 nm) (Thermostability; heating time 0 min): 0.00
- Purity (Thermostability; heating time 0 min): 100%
- Coloration degree (A480 nm) (Thermostability; heating time 30 min): 0.00
- Purity (Thermostability; heating time 30 min): 100%
- Coloration degree (A480 nm) (Thermostability; heating time 60 min): 0.00
- Purity (Thermostability; heating time 60 min): 100%
- Coloration degree (A480 nm) (Thermostability; heating time 90 min): 0.00
- Purity (Thermostability; heating time 90 min): 100%
- Assimilability [5]: − (negative (−) when the post culture had a pH of 6.0 or higher)
- Death at highest possible dose (mice): did not induce death of mouse
- LD50 (mice): at least 50 g/kg mouse body weight

Structure (SMILES): OC[C@@H](O)[C@@H](O[C@H]1O[C@H](CO)[C@@H](O)[C@H](O)[C@H]1O)[C@H](O)[C@@H](O)CO [Maltitol, maltitol]
- Enzymatic action for forming cyclotetrasaccharide, Enzyme of Strain C11 [6]: −
- Enzymatic action for forming cyclotetrasaccharide, Enzyme of Strain A19 [7]: −
- Enzymatic action for forming cyclotetrasaccharide, Enzyme of Strain N75 [8]: −
- Enzymatic action for forming cyclotetrasaccharide, Enzyme of Strain S1 [9]: −
- Enzymatic action for forming cyclotetrasaccharide, Enzyme of Strain C9 [10]: −
